# From PMC9251361, “Effects of LPS Composition in Escherichia coli on Antibacterial Activity and Bacterial Uptake of Antisense Peptide-PNA Conjugates” (Frontiers in Microbiology, 2022)
# Columns and labels:
# E. coli K12 MG1655 = test: microbe, parasite or virus in culture; format: cell-based, Escherichia coli; details: Escherichia coli; Table 4; strain MG1655; MHB, 37°C, 18 h; read-out: MIC values, Carbenicillin
# Description: (§1) All strains used in this study are listed in Supplementary Table S1. E. coli strains WD101 and WD101ΔeptAΔarnD (WD101ΔΔ) were kindly provided by Professor M. Stephen Trent (University of Georgia, USA). E. coli strains DB wild type, DB L5, and DB L9 were kindly provided by Dr. Douglas Browning (University of Birmingham, UK). Single deletion strains for envelope mutants were obtained from the Keio-collection (Baba et al., [2006]). All strains were grown in non-cation adjusted Muller Hinton broth (MHB) (Sigma, Cat. No. 70192). BPP-PNA conjugates (Table 1) were obtained as described previously (Good et al., [2001]; Ghosal et al., [2013]; Hansen et al., [2016]).
# (§2) Minimum inhibitory concentration (MIC) values were determined by broth microdilution according to standard protocols adapted to peptide-based antimicrobial compounds (Goltermann and Nielsen, [2020]). Briefly, 190 μl bacterial cell culture containing ≈10^5 cfu/ml was dispensed into a 96-well plate (Thermo Scientific, Nunc Cat. No. 260896, 96F straight w/lid) along with 10 μl PNA stock solution or antibiotic. The plate was incubated in a Tecan Genios plate reader at 37°C for 18 h, and OD was measured every 20 min at 595 nm. The MIC was determined as the lowest concentration, which inhibited visible growth (OD < 0.1) in the wells. […] Experiments were performed in triplicates as a minimum.
# [1] = test system: E. coli tolB, tolQ, and tolR mutants; test: MIC broth microdilution, tol mutants as a group; format: cell-based, Escherichia coli
# Description: as §2
# The Pal-Tol-system, an envelope spanning complex involved in maintaining the outer membrane integrity, has previously been implicated in general antibiotic susceptibility, and thus was also investigated.
# E. coli BW25113 = test: MIC broth microdilution; format: cell-based; details: Escherichia coli; Table 4; strain BW25113; MHB, 37°C, 18 h; read-out: MIC values, Carbenicillin
# Description: as §1, §2
# [2] = test system: E. coli BW25113 metL mutant (Keio collection); test: MIC broth microdilution; format: cell-based; details: Escherichia coli, BW25113, 18 h, read-out: MIC values, Carbenicillin
# Description: as §1, §2
# [3] = test system: E. coli BW25113 hydN mutant (Keio collection); test: MIC broth microdilution; format: cell-based; details: Escherichia coli, BW25113, 18 h, read-out: MIC values, Carbenicillin
# Description: as §1, §2
# [4] = test system: E. coli BW25113 mrcB mutant (Keio collection); test: MIC broth microdilution; format: cell-based; details: Escherichia coli, BW25113, 18 h, read-out: MIC values, Carbenicillin
# Description: as §1, §2
# [5] = test system: E. coli BW25113 tolB mutant (Keio collection); test: MIC broth microdilution; format: cell-based; details: Escherichia coli, BW25113, 18 h, read-out: MIC values, Carbenicillin
# Description: as §1, §2
# [6] = test system: E. coli BW25113 ppiB mutant (Keio collection); test: MIC broth microdilution; format: cell-based; details: Escherichia coli, BW25113, 18 h, read-out: MIC values, Carbenicillin
# Description: as §1, §2
# [7] = test system: E. coli BW25113 tolR mutant (Keio collection); test: MIC broth microdilution; format: cell-based; details: Escherichia coli, BW25113, 18 h, read-out: MIC values, Carbenicillin
# Description: as §1, §2
# [8] = test system: E. coli BW25113 tolQ mutant (Keio collection); test: MIC broth microdilution; format: cell-based; details: Escherichia coli, BW25113, 18 h, read-out: MIC values, Carbenicillin
# Description: as §1, §2
smiles,measurement,setting,value
CC1(C)S[C@@H]2[C@H](NC(=O)C(C(=O)O)c3ccccc3)C(=O)N2[C@H]1C(=O)O (stereo partly shown) [Carbenicillin],MIC,E. coli K12 MG1655,16 µg/mL
same,fold increase in carbenicillin susceptibility,[1],circa 8 fold
same,MIC,E. coli BW25113,8 µg/mL
same,MIC,[2],16 µg/mL
same,MIC,[3],16 µg/mL
same,MIC,[4],4 µg/mL
same,MIC,[5],≤ 2 µg/mL
same,MIC,[6],16 µg/mL
same,MIC,[7],2 to 4 µg/mL
same,MIC,[8],≤ 2 µg/mL
